From US7868204B2, “Inhibitors of histone deacetylase” (MethylGene Inc., priority 2001, dated 2011)
Like-named read-outs stand apart in the source and are kept apart here.

Key:
[1] = tested on: HCT116 cells; test: MTT assay; type: cell-based; conditions: Homo sapiens, HCT116 cells, 72 hours
Method in brief: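 Read-out: MTT (0.5 mg/ml final, 4 h) after solubilization in 50% DMF/20% SDS, pH 4.7, with OD translated into cell number via the line's growth curve. Compound treatment lasted 72 h at 37 °C in 5% CO2, starting a day after plating.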

[2] = tested on: acetylated histone H-4 in T24 human bladder cancer cells; test: Histone H4 acetylation in whole cells by immunoblots; type: cell-based; conditions: 16 h
Description: T24 human bladder cancer cells growing in culture were incubated with HDAC inhibitors for 16 h. […] of total histone protein was loaded onto SDS/PAGE and transferred to nitrocellulose membranes. Membranes were probed with polyclonal antibodies specific for acetylated histone H-4 (Upstate Biotech Inc.), followed by horse radish peroxidase conjugated secondary antibodies (Sigma). Enhanced Chemiluminescence (ECL) (Amersham) detection was performed using Kodak films (Eastman Kodak). Acetylated H-4 signal was quantified by densitometry.

[3] = target: T1, cloned recombinant human HDAC-1 (Homo sapiens, UniProt Q13547); test: Human HDAC-1 enzyme inhibition, Assay 1 ([3H]-acetylated histone substrate, scintillation counting); type: biochemical
T1 construct: made in house; host or cells: Baculovirus insect cell expression system
Method in brief: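 Activity read as [3H]-acetic acid liberated from labeled substrate, ethyl acetate-extracted and scintillation-counted. Compounds preincubated 30 min at 4° C. with baculovirus-expressed, purified human HDAC-1. Dose-response curves give IC50 as concentration producing fifty percent of maximal inhibition.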

[4] = T-24, Table 5c, read-out: H4Ac (T24) EC50
[5] = T-24, Table 5F, read-out: H4 Ac (T24) EC50
[6] = Table 5F, read-out: Human HDAC-1 IC50
[7] = T-24, Table 5a, read-out: H4Ac (T24) EC50
[8] = Table 5a, read-out: Human HDAC-1 IC50
[9] = T-24, Table 5d, read-out: H4Ac(T24) EC50
[10] = T-24, Table 5E, read-out: H4 Ac (T24) EC50

T1 sequence (Q13547 whole entry): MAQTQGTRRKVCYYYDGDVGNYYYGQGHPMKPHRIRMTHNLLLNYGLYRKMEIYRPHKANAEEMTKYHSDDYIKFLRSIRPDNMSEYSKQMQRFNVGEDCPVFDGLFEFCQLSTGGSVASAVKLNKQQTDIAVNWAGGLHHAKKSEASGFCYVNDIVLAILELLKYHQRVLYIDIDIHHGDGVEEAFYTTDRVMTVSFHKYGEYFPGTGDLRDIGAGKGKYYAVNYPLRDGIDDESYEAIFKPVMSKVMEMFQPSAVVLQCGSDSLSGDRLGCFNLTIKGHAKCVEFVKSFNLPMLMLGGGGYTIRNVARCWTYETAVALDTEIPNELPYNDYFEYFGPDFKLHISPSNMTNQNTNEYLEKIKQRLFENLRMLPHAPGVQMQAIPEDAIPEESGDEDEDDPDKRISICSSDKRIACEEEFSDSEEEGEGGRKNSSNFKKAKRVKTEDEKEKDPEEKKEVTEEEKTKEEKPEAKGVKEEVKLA

IC50 ([1]; HCT-116, 72 h, Table 5F)	EC50 [2, 5]	IC50 [3, 6]	Compound	other results
–	–	–	COc1ccc(CCNc2ccc(/C=C/C(=O)Nc3ccccc3N)cn2)cc1 [Cpd 95, N-(2-aminophenyl)-3-{6-[2-(4-methoxy-phenyl)-ethylamino]-pyridin-3-yl}-acrylamide]	IC50 ([1]; HCT-116, 72 h, Table 5c): 2000 nM; EC50 [2, 4]: 10000 nM; IC50 ([3]; Table 5c, read-out: Human HDAC-1 IC50): 3000 nM
200 nM	1000 nM	8000 nM	Nc1ccccc1NC(=O)c1ccc(NCc2nc3ccccc3[nH]2)cc1 [Cpd 334]	–
–	–	–	Nc1nc(NCc2ccc(C(=O)Nc3ccccc3N)cc2)nc(NC2CCc3ccccc32)n1 (centres unmarked) [Cpd 10, 4-{[4-amino-6-(1-indanyl-amino)-[1,3,5]-triazin-2-ylamino]-methyl}-N-(2-amino-phenyl)-benzamide]	IC50 ([1]; HCT-116, 72 h, Table 5a): 600 nM; EC50 [2, 7]: 1000 nM; IC50 [3, 8]: 2000 nM
–	–	–	COc1cc(N(CCN2CCOCC2)Cc2ccc(/C=C/C(=O)Nc3ccccc3N)cc2)cc(OC)c1OC [Cpd 523, N-(2-Amino-phenyl)-3-(4-{[(2-morpholin-4-yl-ethyl)-(3,4,5-trimethoxy-phenyl)-amino]-methyl}-phenyl)-acrylamide]	IC50 ([1]; HCT-116, Table 5d): 6000 nM; EC50 [2, 9]: 10000 nM; IC50 ([3]; Table 5d, read-out: HDAC-1 IC50): 8000 nM
2000 nM	5000 nM	6000 nM	COc1ccc(C2C=CC(c3ccc(C(=O)Nc4ccccc4N)cc3)O2)cc1 (centres unmarked) [Cpd 367, N-(2-Amino-phenyl)-4-[5-(4-methoxy-phenyl)-2,5-dihydro-furan-2-yl]-benzamide]	–
300 nM	1000 nM	1400 nM	Cn1c(=O)c2cc(NCc3ccc(C(=O)Nc4ccccc4N)cc3)ccc2n(C)c1=O [Cpd 461, N-(2-Amino-phenyl)-4-[(1,3-dimethyl-2,4-dioxo-1,2,3,4-tetrahydro-quinazolin-6-ylamino)-methyl]-benzamide]	–
300 nM	1000 nM	4000 nM	Cc1nn(-c2ccccc2)c(C)c1Cc1ccc(C(=O)Nc2ccccc2N)cc1 [compound 277, N-(2-Amino-phenyl)-4-(3,5-dimethyl-1-phenyl-1H-pyrazol-4-ylmethyl)-benzamide]	–
600 nM	1000 nM	1000 nM	COc1cc(NCc2ccc(-c3ccc(C(=O)Nc4ccccc4N)cc3)s2)cc(OC)c1OC [Cpd 323]	–
600 nM	1000 nM	3000 nM	Nc1ccccc1NC(=O)c1ccc(NCc2cccc(F)c2)cc1 [Cpd 416, N-(2-Amino-phenyl)-4-(3-fluoro-benzylamino)-benzamide]	–
–	–	–	Nc1nc(NCc2ccc(C(=O)Nc3ccccc3N)cc2)nc(NC2Cc3ccccc3C2)n1 [Cpd 8, 4-{[4-Amino-6-(2-indanyl-amino)-[1,3,5]-triazin-2-yl-amino]-methyl}-N-(2-amino-phenyl)-benzamide]	IC50 ([1]; HCT-116, 72 h, Table 5a): 500 nM; EC50 [2, 7]: 1000 nM; IC50 [3, 8]: 400 nM
300 nM	2000 nM	3000 nM	Nc1ccccc1NC(=O)c1ccc(CNc2ccc3oc(SCc4cccnc4)nc3c2)cc1 [Cpd 452, N-(2-Amino-phenyl)-4-{[2-(pyridin-3-ylmethylsulfanyl)-benzooxazol-5-ylamino]-methyl}-benzamide]	–
1000 nM	5000 nM	2000 nM	Nc1ccccc1NC(=O)c1ccc(CNc2nc(F)c(F)cc2F)cc1 [Cpd 350]	–
200 nM	1000 nM	5000 nM	Cc1c(Cc2ccc(C(=O)Nc3ccccc3N)cc2)sc(NC(=O)c2ccccc2)c1C#N [Cpd 360, 4-(5-Benzoylamino-4-cyano-3-methyl-thiophen-2-ylmethyl)-N-(2-amino-phenyl)-benzamide]	–
–	–	–	Nc1ccccc1NC(=O)c1ccc(CSc2nc3ccc(NCCN4CCOCC4)cc3s2)cc1 [Cpd 128, N-(2-Amino-phenyl)-4-[6-(2-morpholin-4-yl-ethylamino)-benzothiazol-2-ylsulfanylmethyl]-benzamide]	IC50 ([1]; HCT-116, 72 h, Table 5E): 300 nM; EC50 [2, 10]: 5000 nM; IC50 ([3]; Table 5E, read-out: Human HDAC-1 IC50): 1000 nM
200 nM	1000 nM	1000 nM	COc1ccc(NCc2ccc(C(=O)Nc3ccccc3N)cc2)c(C)c1 [Cpd 403, N-(2-Amino-phenyl)-4-[(4-methoxy-2-methyl-phenylamino)-methyl]-benzamide]	–
500 nM	1000 nM	2000 nM	Cc1c(Cc2ccc(C(=O)Nc3ccccc3N)cc2)sc(NC(=O)Nc2ccccc2)c1C#N [Cpd 361, N-(2-Amino-phenyl)-4-[4-cyano-3-methyl-5-(3-phenyl-ureido)-thiophen-2-ylmethyl]-benzamide]	–
–	3000 nM	4000 nM	COc1cc(-c2ccc3sc(NCc4ccc(C(=O)Nc5ccccc5N)cc4)nc3c2)cc(OC)c1OC [Cpd 231]	–
–	1000 nM	2000 nM	Nc1ccccc1NC(=O)c1ccc(CNc2nc(Cl)cc(N3CCOCC3)n2)cc1 [Cpd 411, N-(2-Amino-phenyl)-4-[(4-chloro-6-morpholin-4-yl-pyrimidin-2-ylamino)-methyl]-benzamide]	–

IC50 ([1]; HCT-116, 72 h, Table 5F)	EC50 [2, 5]	IC50 [3, 6]	Compound	other results
100 nM	1000 nM	–	COc1ccc(-c2ccnc(NCc3ccc(C(=O)Nc4ccccc4N)cc3)n2)cn1 [Cpd 578, N-(2-Amino-phenyl)-4-{[4-(6-methoxy-pyridin-3-yl)-pyrimidin-2-ylamino]-methyl}-benzamide]	–
–	–	–	CN(C)c1ccc(CNc2ccc(/C=C/C(=O)Nc3ccccc3N)cn2)cc1 [Cpd 96, N-(2-aminophenyl)-3-[6-(4-dimethylamino-benzylamino)-pyridin-3-yl]-acrylamide]	IC50 ([1]; HCT-116, 72 h, Table 5c): 3000 nM; EC50 [2, 4]: 25000 nM
–	–	–	COc1cc(NCc2ccc(C(=O)Nc3ccccc3N)cc2)cc(OC)c1OC [Cpd 164]	IC50 ([1]; HCT-116, 72 h, Table 5E): 2000 nM; EC50 [2, 10]: 3000 nM
–	–	–	Nc1ccccc1NC(=O)/C=C/c1ccc(NCc2ccc(OC(F)(F)F)cc2)nc1 [Cpd 99, N-(2-aminophenyl)-3-[6-(4-trifluoromethoxy-benzylamino)-pyridin-3-yl]-acrylamide]	IC50 ([1]; HCT-116, 72 h, Table 5c): 5000 nM; EC50 [2, 4]: 10000 nM
–	–	–	COc1cc(N(C)Cc2ccc(/C=C/C(=O)Nc3ccccc3N)cc2)cc(OC)c1OC [Cpd 108]	IC50 ([1]; HCT-116, 72 h, Table 5c): 5000 nM; EC50 [2, 4]: 5000 nM
2000 nM	1000 nM	–	COc1ccc(NCc2ccc(C(=O)Nc3ccccc3N)cc2)cc1 [Cpd 427, N-(2-Amino-phenyl)-4-[(4-methoxy-phenylamino)-methyl]-benzamide]	–
100 nM	2000 nM	–	COc1ccc(-c2ccnc(NCc3ccc(C(=O)Nc4ccccc4N)cc3)n2)cc1OC [Cpd 440, N-(2-Amino-phenyl)-4-{[4-(3,4-dimethoxy-phenyl)-pyrimidin-2-ylamino]-methyl}-benzamide]	–
600 nM	2000 nM	–	COc1ccc(CNc2ccc(C(=O)Nc3ccccc3N)cc2)cc1OC [Cpd 434, N-(2-Amino-phenyl)-4-(3,4-dimethoxy-benzylamino)-benzamide]	–
–	–	–	Nc1ccccc1NC(=O)/C=C/c1cnc(NCc2ccc([N+](=O)[O-])cc2)nc1 [Cpd 113, N-(2-amino-phenyl)-3-[2-(4-nitro-benzylamino)-pyrimidin-5-yl]-acrylamide]	IC50 ([1]; HCT-116, 72 h, Table 5c): 300 nM; EC50 [2, 4]: 5000 nM
–	–	–	COc1ccc(NCc2ccc(/C=C/C(=O)Nc3ccccc3N)cc2)cc1OC [Cpd 542, N-(2-Amino-phenyl)-3-{4-[(3,4-dimethoxy-phenylamino)-methyl]-phenyl}-acrylamide]	IC50 ([1]; HCT-116, Table 5d): 5000 nM; EC50 [2, 9]: 4000 nM
–	1000 nM	2000 nM	Nc1ccccc1NC(=O)c1ccc(CNc2nc3cc(Cl)ccc3o2)cc1 [Cpd 320, N-(2-Amino-phenyl)-4-[(5-chloro-benzooxazol-2-ylamino)-methyl]-benzamide]	–
–	–	–	COc1cc(CNc2ccc(C(=O)Nc3ccccc3N)cn2)cc(OC)c1OC [Cpd 176]	IC50 ([1]; HCT-116, 72 h, Table 5E): 1000 nM; EC50 [2, 10]: 3000 nM
2000 nM	3000 nM	–	COc1cc(CNc2ccc(C(=O)Nc3ccccc3N)cc2)cc(OC)c1OC [Cpd 412, N-(2-Amino-phenyl)-4-(3,4,5trimethoxybenzylamino)-benzamide]	–
–	–	–	Nc1nc(Nc2ccc(C(=O)Nc3ccccc3N)cc2)nc(NC2Cc3ccccc3C2)n1 [Cpd 204]	EC50 ([2]; T-24, Table 5b, read-out: H4Ac (T24) EC50): 5000 nM; IC50 ([3]; Table 5b, read-out: Human HDAC-1 IC50): 4000 nM
–	–	–	COc1cc(CNc2ccc(/C=C/C(=O)Nc3ccccc3N)cn2)cc(OC)c1OC [Cpd 116, N-(2-aminophenyl)-3-[6-(3,4,5-trimethoxy-benzylamino)-pyridin-3-yl]-acrylamide]	IC50 ([1]; HCT-116, 72 h, Table 5c): 2000 nM; EC50 [2, 4]: 5000 nM
–	–	–	COc1cc(NCc2ccc(/C=C/C(=O)Nc3ccccc3N)cn2)cc(OC)c1OC [Cpd 512, N-(2-Amino-phenyl)-3-{6-[(3,4,5-trimethoxy-phenylamino)-methyl]-pyridin-3-yl}-acrylamide]	IC50 ([1]; HCT-116, Table 5d): 3000 nM; EC50 [2, 9]: 5000 nM
–	–	–	Nc1ccccc1NC(=O)/C=C/c1ccc(NCCCc2ccccc2)nc1 [Cpd 94, N-(2-aminophenyl)-3-[6-(3-phenyl-propylamino)-pyridin-3-yl]-acrylamide]	IC50 ([1]; HCT-116, 72 h, Table 5c): 2000 nM; EC50 [2, 4]: 5000 nM
